Reference: the NIST ThermoML archive (doi:10.1021/acs.jced.8b00036)
“And” between values parts separate entries of the source, which are not always exact repeats. Equal entries are not always repeated.

Conditions: Capillary tube (Ostwald / Ubbelohde) method

FC(F)(F)/C=C\C(F)(F)F [(Z)-1,1,1,4,4,4-hexafluorobut-2-ene]
Conditions | viscosity
313.83 K, 513 kPa, Liquid | 0.3037 mPa·s
313.84 K, 513 kPa, Liquid | 0.3034 mPa·s
313.84 K, 514 kPa, Liquid | 0.3036 mPa·s
313.92 K, 2053 kPa, Liquid | 0.3115 mPa·s
313.94 K, 2037 kPa, Liquid | 0.3097 mPa·s
313.94 K, 2996 kPa, Liquid | 0.3143 mPa·s
313.94 K, 3001 kPa, Liquid | 0.3146 mPa·s
313.94 K, 4041 kPa, Liquid | 0.3198 mPa·s
313.95 K, 2025 kPa, Liquid | 0.3098 mPa·s
313.95 K, 3000 kPa, Liquid | 0.3143 mPa·s
313.95 K, 4049 kPa, Liquid | 0.3197 mPa·s
313.96 K, 4002 kPa, Liquid | 0.3194 mPa·s
314.26 K, 1040 kPa, Liquid | 0.3074 mPa·s
314.27 K, 1041 kPa, Liquid | 0.3068 mPa·s
314.31 K, 1050 kPa, Liquid | 0.3081 mPa·s
331.5 K, 503 kPa, Liquid | 0.2577 mPa·s
331.5 K, 505 kPa, Liquid | 0.2579 mPa·s
331.51 K, 506 kPa, Liquid | 0.2578 mPa·s
331.57 K, 2020 kPa, Liquid | 0.2593 mPa·s and 0.2599 mPa·s
331.57 K, 2033 kPa, Liquid | 0.26 mPa·s
331.81 K, 1002 kPa, Liquid | 0.2579 mPa·s
331.82 K, 1017 kPa, Liquid | 0.259 mPa·s
331.83 K, 1015 kPa, Liquid | 0.2588 mPa·s
331.84 K, 4062 kPa, Liquid | 0.2658 mPa·s
331.85 K, 4047 kPa, Liquid | 0.2652 mPa·s
331.87 K, 4059 kPa, Liquid | 0.2651 mPa·s
331.94 K, 3026 kPa, Liquid | 0.2608 mPa·s
331.94 K, 3039 kPa, Liquid | 0.2617 mPa·s
331.94 K, 3040 kPa, Liquid | 0.2617 mPa·s
353.79 K, 4019 kPa, Liquid | 0.2122 mPa·s
353.8 K, 4020 kPa, Liquid | 0.212 mPa·s and 0.2117 mPa·s
353.99 K, 2066 kPa, Liquid | 0.2011 mPa·s
353.99 K, 2067 kPa, Liquid | 0.2011 mPa·s
354 K, 2064 kPa, Liquid | 0.201 mPa·s
354.08 K, 3022 kPa, Liquid | 0.2047 mPa·s
354.1 K, 3021 kPa, Liquid | 0.2032 mPa·s
354.23 K, 1032 kPa, Liquid | 0.1944 mPa·s
354.23 K, 1033 kPa, Liquid | 0.1942 mPa·s
354.24 K, 1031 kPa, Liquid | 0.193 mPa·s
374.43 K, 4050 kPa, Liquid | 0.1702 mPa·s
374.43 K, 4056 kPa, Liquid | 0.1702 mPa·s
374.44 K, 2025 kPa, Liquid | 0.1613 mPa·s
374.44 K, 4050 kPa, Liquid | 0.1705 mPa·s
374.45 K, 2025 kPa, Liquid | 0.1618 mPa·s
374.46 K, 2025 kPa, Liquid | 0.1611 mPa·s
374.74 K, 3026 kPa, Liquid | 0.1632 mPa·s and 0.1645 mPa·s
374.75 K, 3026 kPa, Liquid | 0.1635 mPa·s
374.87 K, 492 kPa, Gas | 0.013 mPa·s
374.88 K, 492 kPa, Gas | 0.01305 mPa·s
393.63 K, 3044 kPa, Liquid | 0.1336 mPa·s
393.64 K, 3044 kPa, Liquid | 0.1339 mPa·s
393.65 K, 3044 kPa, Liquid | 0.1332 mPa·s
393.65 K, 4017 kPa, Liquid | 0.1377 mPa·s and 0.138 mPa·s and 0.1378 mPa·s
394 K, 2016 kPa, Liquid | 0.1278 mPa·s
394.01 K, 2016 kPa, Liquid | 0.128 mPa·s
394.03 K, 2016 kPa, Liquid | 0.1282 mPa·s
394.16 K, 499 kPa, Gas | 0.01348 mPa·s
394.19 K, 499 kPa, Gas | 0.01343 mPa·s
413.55 K, 4046 kPa, Liquid | 0.1104 mPa·s
413.56 K, 4047 kPa, Liquid | 0.11 mPa·s
413.63 K, 3011 kPa, Liquid | 0.103 mPa·s
413.63 K, 3015 kPa, Liquid | 0.103 mPa·s
413.75 K, 3010 kPa, Liquid | 0.1029 mPa·s
413.99 K, 503 kPa, Gas | 0.01378 mPa·s
414.21 K, 503 kPa, Gas | 0.01361 mPa·s
414.24 K, 1014 kPa, Gas | 0.01449 mPa·s
414.29 K, 1033 kPa, Gas | 0.01434 mPa·s and 0.01444 mPa·s
434.12 K, 3016 kPa, Liquid | 0.07044 mPa·s and 0.07094 mPa·s
434.13 K, 3016 kPa, Liquid | 0.07045 mPa·s
434.23 K, 502 kPa, Gas | 0.01388 mPa·s
434.23 K, 503 kPa, Gas | 0.01384 mPa·s
434.28 K, 1011 kPa, Gas | 0.01451 mPa·s
434.28 K, 1012 kPa, Gas | 0.01443 mPa·s
434.37 K, 4014 kPa, Liquid | 0.08047 mPa·s and 0.08072 mPa·s and 0.08096 mPa·s
454.24 K, 506 kPa, Gas | 0.01429 mPa·s
454.27 K, 506 kPa, Gas | 0.0143 mPa·s
454.34 K, 1003 kPa, Gas | 0.01547 mPa·s and 0.01568 mPa·s
454.57 K, 2031 kPa, Gas | 0.01628 mPa·s
454.58 K, 2030 kPa, Gas | 0.01633 mPa·s
473.27 K, 509 kPa, Gas | 0.02101 mPa·s
474.67 K, 500 kPa, Gas | 0.0152 mPa·s
474.69 K, 500 kPa, Gas | 0.01519 mPa·s
474.82 K, 999 kPa, Gas | 0.01587 mPa·s
474.83 K, 2004 kPa, Gas | 0.0169 mPa·s
474.84 K, 2004 kPa, Gas | 0.01661 mPa·s
474.85 K, 1000 kPa, Gas | 0.01579 mPa·s

FCC(F)(F)F [1,1,1,2-tetrafluoroethane]
Liquid
Conditions | viscosity [mPa·s]
312.75 K, 4064 kPa | 0.1723
312.76 K, 4069 kPa | 0.1731
312.77 K, 3061 kPa | 0.1681
312.78 K, 3042 kPa | 0.1684
312.78 K, 3061 kPa | 0.1682
312.82 K, 4048 kPa | 0.173
312.83 K, 1706 kPa | 0.1656
312.96 K, 1701 kPa | 0.165
313.01 K, 1763 kPa | 0.1654
313.5 K, 1796 kPa | 0.1656
332.79 K, 3072 kPa | 0.1279
332.79 K, 3083 kPa | 0.1284
332.8 K, 3079 kPa | 0.1282
332.8 K, 4005 kPa | 0.1325
332.81 K, 4008 kPa | 0.1324
332.81 K, 4011 kPa | 0.1325
354.96 K, 4007 kPa | 0.09565
355.51 K, 4078 kPa | 0.09407
355.94 K, 4155 kPa | 0.09335
